T/C data for 16 compounds are collected here from PubChem BioAssay AID328 (DTP/NCI, 2004).

For this test, the system named is BDF1 mice, P388 leukemia ip, median survival T/C. As to the kind of experiment: NCI In Vivo Anticancer Drug Screen. Data for tumor model P388 Leukemia (intraperitoneal) in B6D2F1 (BDF1) mice. The note with it: endpoint: median survival time, higher = longer survival. The gist of the method:
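Antitumour effect was judged in vivo: survival in drug-treated mice, normalised to that of vehicle-dosed controls, gives the reported T/C.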

Where [1] appears, read: dose: 6.25 mg/kg/injection, schedule: Q01DX009 (ip), vehicle: Klucel (hydroxypropylcellulose) (HPC).
[2] abbreviates: dose: 12.5 mg/kg/injection, schedule: Q01DX009 (ip), vehicle: Klucel (hydroxypropylcellulose) (HPC).
Setting [3] is: dose: 12.5 mg/kg/injection, schedule: Q01DX009 (ip), vehicle: saline.
The mark [4] stands for this setting: dose: 25.0 mg/kg/injection, schedule: Q01DX009 (ip), vehicle: saline.
Where [5] appears, read: dose: 12.5 mg/kg/injection, schedule: Q01DX009 (ip), vehicle: saline with Tween-80.
Where [6] appears, read: dose: 25.0 mg/kg/injection, schedule: Q01DX009 (ip), vehicle: saline with Tween-80.
[7] abbreviates: dose: 50.0 mg/kg/injection, schedule: Q01DX009 (ip), vehicle: saline with Tween-80.
Where [8] appears, read: dose: 100.0 mg/kg/injection, schedule: Q01DX009 (ip), vehicle: saline with Tween-80.

Values joined by “and” are separate entries in the source; they are usually repeats but may differ in a detail not shown here. Equal values may be shown once. Toxic doses and inconclusive results are not listed.

With `C[C@]12CC[C@H](O)C=C1CC[C@@H]1[C@@H]2CC[C@]2(C)C(c3ccc(=O)oc3)CC[C@]12O` (some centres undefined), the T/C is, setting by setting: under setting [1], 96 % of control; under setting [2], 86 % of control.
As for `Cc1ccc(C(O)c2c(C)cc(C)cc2C)c(C)c1` (centres undefined), the T/C by setting is: (dose: 100.0 mg/kg/injection, schedule: Q01DX001 (ip), vehicle: saline with Tween-80) 100 % of control; (dose: 200.0 mg/kg/injection, schedule: Q01DX001 (ip), vehicle: saline with Tween-80) 100 % of control; (dose: 400.0 mg/kg/injection, schedule: Q01DX001 (ip), vehicle: saline with Tween-80) 100 % of control.
With `CCN(CC)c1ccc(C(=C(c2ccc(N(CC)CC)cc2)c2ccc(N(CC)CC)cc2)c2ccc(N(CC)CC)cc2)cc1`, the T/C (dose: 50.0 mg/kg/injection, schedule: Q04DX003 (ip), vehicle: Klucel (hydroxypropylcellulose) (HPC)) is 100 % of control; the T/C (dose: 100.0 mg/kg/injection, schedule: Q04DX003 (ip), vehicle: Klucel (hydroxypropylcellulose) (HPC)) is 104 % of control; the T/C (dose: 200.0 mg/kg/injection, schedule: Q04DX003 (ip), vehicle: Klucel (hydroxypropylcellulose) (HPC)) is 90 % of control.
Regarding `CCOC(=O)c1c[nH]c2ccccc2c1=O`, the T/C was 107 % of control (dose: 100.0 mg/kg/injection, schedule: Q04DX002 (ip), vehicle: saline); 111 % of control (dose: 200.0 mg/kg/injection, schedule: Q04DX002 (ip), vehicle: saline); 102 % of control (dose: 400.0 mg/kg/injection, schedule: Q04DX002 (ip), vehicle: saline).
With `C=[CH][Sn]([CH]=C)([CH]=C)[O]C(C)=O`, the T/C (dose: 1.56 mg/kg/injection, schedule: Q01DX009 (ip), vehicle: Klucel (hydroxypropylcellulose) (HPC)) is 101 % of control; the T/C (dose: 1.56 mg/kg/injection, schedule: Q04DX003 (ip), vehicle: Klucel (hydroxypropylcellulose) (HPC)) was 91 % of control; the T/C (dose: 3.12 mg/kg/injection, schedule: Q01DX009 (ip), vehicle: Klucel (hydroxypropylcellulose) (HPC)) was 101 % of control and 109 % of control; the T/C (dose: 3.12 mg/kg/injection, schedule: Q04DX003 (ip), vehicle: Klucel (hydroxypropylcellulose) (HPC)) is 92 % of control; the T/C under setting [1] is 110 % of control and 117 % of control; the T/C (dose: 6.25 mg/kg/injection, schedule: Q04DX003 (ip), vehicle: Klucel (hydroxypropylcellulose) (HPC)) was 94 % of control and 101 % of control. The T/C by setting is: under setting [2], 153 % of control and 160 % of control; under setting [3], 153 % of control and 162 % of control; (dose: 12.5 mg/kg/injection, schedule: Q04DX003 (ip), vehicle: Klucel (hydroxypropylcellulose) (HPC)) 104 % of control and 106 % of control; under setting [4], 86 % of control.
`Cc1cc2nc(Oc3ccccc3)nc(=O)n2c(C)n1`: the T/C runs as follows: under setting [5], 109 % of control; under setting [6], 114 % of control; under setting [7], 97 % of control.
Consider `Cc1c(Cl)cccc1N1C(=O)CC(Sc2ccccc2N)C1=O` (centres undefined), for which the T/C reads like this: under setting [8], 110 % of control; (dose: 100.0 mg/kg/injection, schedule: Q04DX003 (ip), vehicle: saline with Tween-80) 95 % of control; (dose: 200.0 mg/kg/injection, schedule: Q01DX009 (ip), vehicle: saline with Tween-80) 105 % of control; (dose: 200.0 mg/kg/injection, schedule: Q04DX003 (ip), vehicle: saline with Tween-80) 104 % of control; (dose: 400.0 mg/kg/injection, schedule: Q01DX009 (ip), vehicle: saline with Tween-80) 105 % of control; (dose: 400.0 mg/kg/injection, schedule: Q04DX003 (ip), vehicle: saline with Tween-80) 109 % of control.
With `C[N+]12CCN(CC1)CC2`, the T/C runs as follows: (dose: 100.0 mg/kg/injection, schedule: Q01DX009 (ip), vehicle: saline) 91 % of control; (dose: 200.0 mg/kg/injection, schedule: Q01DX009 (ip), vehicle: saline) 91 % of control; (dose: 400.0 mg/kg/injection, schedule: Q01DX009 (ip), vehicle: saline) 100 % of control.
In the case of `O=C1c2ccccc2C(=O)N1Cc1ccc([N+](=O)[O-])cc1`, the T/C was 97 % of control under setting [5], 96 % of control under setting [6], 97 % of control under setting [7] and 92 % of control under setting [8].
With `Cc1nc(N)c([N+](=O)[O-])cc1[N+](=O)[O-]`, the T/C (dose: 100.0 mg/kg/injection, schedule: Q01DX001 (ip), vehicle: Klucel (hydroxypropylcellulose) (HPC)) was 87 % of control.
For the compound `O=C(Nc1ccc(-c2cn3ccccc3n2)cc1)c1cc(Br)ccc1O`, the T/C under setting [5] is 100 % of control, the T/C under setting [6] is 91 % of control and the T/C under setting [7] was 107 % of control.
`CC(=O)OC(C)(C)/C=C/C(=O)[C@](C)(O)[C@H]1[C@H](O)C[C@@]2(C)[C@@H]3CC=C4[C@@H](C[C@H](O)C(=O)C4(C)C)[C@]3(C)C(=O)C[C@]12C`: the T/C is 95 % of control (dose: 0.07 mg/kg/injection, schedule: Q01DX009 (ip), vehicle: saline); 100 % of control (dose: 0.09 mg/kg/injection, schedule: Q04DX003 (ip), vehicle: saline); 115 % of control (dose: 0.12 mg/kg/injection, schedule: Q01DX009 (ip), vehicle: saline); 105 % of control (dose: 0.18 mg/kg/injection, schedule: Q01DX009 (ip), vehicle: saline); 120 % of control (dose: 0.18 mg/kg/injection, schedule: Q01DX010 (ip), vehicle: carboxymethylcellulose (CMC)); 104 % of control (dose: 0.18 mg/kg/injection, schedule: Q04DX003 (ip), vehicle: saline). The T/C is 113 % of control (dose: 0.25 mg/kg/injection, schedule: Q01DX010 (ip), vehicle: carboxymethylcellulose (CMC)); 100 % of control (dose: 0.37 mg/kg/injection, schedule: Q01DX010 (ip), vehicle: carboxymethylcellulose (CMC)); 118 % of control (dose: 0.5 mg/kg/injection, schedule: Q01DX010 (ip), vehicle: carboxymethylcellulose (CMC)); 115 % of control (dose: 0.75 mg/kg/injection, schedule: Q01DX010 (ip), vehicle: carboxymethylcellulose (CMC)); 115 % of control (dose: 1.5 mg/kg/injection, schedule: Q01DX010 (ip), vehicle: carboxymethylcellulose (CMC)); 112 % of control (dose: 132.0 micrograms/kg/injection, schedule: Q01DX009 (ip), vehicle: saline). Also, the T/C (dose: 198.0 micrograms/kg/injection, schedule: Q01DX009 (ip), vehicle: saline) was 104 % of control.
Turning to `CCCCCCC(N)C(C)O` (centres undefined), the T/C is, setting by setting: under setting [3], 105 % of control; under setting [4], 100 % of control; under setting [7], 101 % of control; (dose: 50.0 mg/kg/injection, schedule: Q01DX009 (ip), vehicle: saline) 105 % of control.
Turning to `O=C(Cn1ccc(=O)[nH]c1=O)Nc1nccs1`, the T/C was 93 % of control (dose: 3.12 mg/kg/injection, schedule: Q04DX003 (ip), vehicle: saline); 107 % of control and 121 % of control (dose: 6.25 mg/kg/injection, schedule: Q04DX003 (ip), vehicle: saline); 110 % of control and 121 % of control (dose: 12.5 mg/kg/injection, schedule: Q04DX003 (ip), vehicle: saline); 109 % of control and 121 % of control (dose: 25.0 mg/kg/injection, schedule: Q04DX003 (ip), vehicle: saline).
With `CCN(CC)CCOC(=O)c1ccccc1N(c1ccccc1)c1ccccc1`, the T/C is 118 % of control (dose: 62.5 mg/kg/injection, schedule: Q01DX009 (ip), vehicle: Klucel (hydroxypropylcellulose) (HPC)) and 118 % of control (dose: 125.0 mg/kg/injection, schedule: Q01DX009 (ip), vehicle: Klucel (hydroxypropylcellulose) (HPC)).
Take `Cc1ccc2scc3c4ccccc4nc-3c2c1`: the T/C runs as follows: (dose: 2.5 mg/kg/injection, schedule: Q01DX009 (ip), vehicle: saline) 94 % of control; (dose: 5.0 mg/kg/injection, schedule: Q01DX009 (ip), vehicle: saline) 107 % of control; (dose: 10.0 mg/kg/injection, schedule: Q01DX009 (ip), vehicle: saline) 114 % of control; under setting [3], 113 % of control and 124 % of control; (dose: 20.0 mg/kg/injection, schedule: Q01DX009 (ip), vehicle: saline) 94 % of control; under setting [4], 113 % of control and 124 % of control. For the same compound, the T/C by setting is: (dose: 56.25 mg/kg/injection, schedule: Q04DX003 (ip), vehicle: saline) 104 % of control; (dose: 75.0 mg/kg/injection, schedule: Q01DX009 (ip), vehicle: saline) 100 % of control and 104 % of control; (dose: 112.5 mg/kg/injection, schedule: Q01DX009 (ip), vehicle: saline) 96 % of control; (dose: 112.5 mg/kg/injection, schedule: Q04DX003 (ip), vehicle: saline) 113 % of control.
